Read-outs that look alike come from different tables or passages of the source. Square brackets hold non-standard residues; d marks the D form. Ends that are not written are not given here. Peptide text beside a SMILES is read from it. * marks the point of attachment. Butanoyl(2,2-Me2) = CCC(C)(C)C(=O)*; Octanoyl(6-Me) = CCC(C)CCCCC(=O)*; Octanoyl = CCCCCCCC(=O)*; X1 = CCCCC(CC)C(=O)*
Columns and labels:
[1] = system: LPS S. Minnesota Re595; experiment: Endpoint LAL activity (Limulus gel-clotting test), inhibition of lipid A-induced LAL enzymatic cascade; assay type: biochemical; conditions: sensibility 0.125 EU/ml, peptide:LPS 100:1 (w/w), minimum of 6 tests in triplicate
Protocol: (§1) The principle of lipid A-induced pro-inflammatory cytokine activity leading to hemorrhagic dermonecrosis (classical Shwartzmann reaction) was tested in rabbit, an animal model very close to humans in terms of sensitivity to LPS activity, and was compared to the inhibition of the lipid A-induced LAL enzymatic cascade activation leading to clot. Thereby, New Zealand White rabbits were injected in the shaved dorsal region with S. minnesota Re595 lipid A alone or with peptide 1:100 (w/w) (5 μg in 0.2 ml saline buffer; route i.d.). […] Polymyxin B (PmB) was used as a control.

[2] = system: LPS Re595; experiment: Local Shwartzmann reaction in rabbit (lipid A-induced hemorrhagic dermonecrosis); assay type: in vivo, New Zealand White rabbits; conditions: i.d. injection in shaved dorsal region; open necrosis observed after 72-96 hours; minimum 3 injections in minimum 3 rabbits
Protocol: as §1

[3] = system: C. neoformans ATCC 32045; assay type: cell-based
Protocol: C. neoformans ATCC 32045 cultures were maintained on yeast medium (YM; Difco Laboratories, Detroit, Mich.) agar plates at 4° C. Prior to the assay, the cultures were grown on agar plates and incubated for 72 hrs at 26° C. Two colonies of these newly grown fungal cultures were then inoculated in 5 ml of 2×YM broth, vortexed, and diluted 10-fold in 2×YM broth, for an approximate final assay concentration of 1×105 to 5×10^5 CFU/ml. In 96-well tissue culture plates, fungal suspensions in 2×YM broth were added to the peptides dispensed at concentrations ranging from 1 mg/ml to 1 μg/ml derived from serial twofold dilutions in sterile water. The plates were then incubated for 72 hrs at 26° C. The relative percent growth of the fungi found for each test sample was determined by the optical density at 620 nm (OD620) by using a Titertek Multiskan Plus apparatus. […] The IC50 were calculated by using a sigmoidal curve-fitting software program (Graphpad Prism; ISI Software, San Diego, Calif.).

[4] = 50% growth inhibition, OD620, 72 hrs at 26° C., 2×YM broth
[5] = lowest concentration that resulted in 2% growth, OD620, 72 hrs at 26° C., 2×YM broth

average IC50 ([3]; ATCC 32045, 72 h) [µg/mL]	average MIC ([3]; ATCC 32045, 72 h) [µg/mL]	Molecule	Endpoint LAL activity peptide: LPS Re595 100:1 (w/w) [1]	Local Shwartzmann reaction in rabbit peptide: LPS Re595 100:1 (w/w) [2]	average IC50 [3, 4] [µg/mL]	average MIC [3, 5] [µg/mL]
–	–	FwRNIRIRR-NH2 (F[dW]RNIRIRR-NH2; N-terminus assumed; SMILES CC[C@H](C)[C@H](NC(=O)[C@H](CCCNC(=N)N)NC(=O)[C@@H](NC(=O)[C@H](CC(N)=O)NC(=O)[C@H](CCCNC(=N)N)NC(=O)[C@@H](Cc1c[nH]c2ccccc12)NC(=O)[C@@H](N)Cc1ccccc1)[C@@H](C)CC)C(=O)N[C@@H](CCCNC(=N)N)C(=O)N[C@@H](CCCNC(=N)N)C(N)=O) [Peptide P2-11]	NEGATIVE	NEGATIVE	–	–
–	–	KRWSWKK-NH2 [Peptide P1-63]	NEGATIVE	NEGATIVE	–	–
–	–	CC[C@H](C)[C@H](NC(=O)[C@H](CC(N)=O)NC(=O)[C@H](CCCNC(=N)N)NC(=O)[C@H](CCC(N)=O)NC(=O)[C@H](Cc1c[nH]c2ccccc12)NC(=O)[C@@H](N)Cc1ccccc1)C(=O)N[C@@H](CCCNC(=N)N)C(=O)N[C@@H](CCCCN)C(=O)N[C@@H](Cc1c[nH]c2ccccc12)C(=O)N[C@@H](CCCNC(=N)N)C(N)=O [VS1-15, FWQRNIRKWR-NH2] (H-FWQRNIRKWR-NH2)	NEGATIVE	NEGATIVE	5	16
–	–	CC[C@H](C)[C@@H]1NC(=O)[C@H](CCCNC(=N)N)NC(=O)[C@H]([C@@H](C)CC)NC(=O)[C@H](CCCNC(=N)N)NC(=O)[C@H](Cc2c[nH]c3ccccc23)NC(=O)[C@H](Cc2ccccc2)NC(=O)[C@H](CCCNC(=N)N)NC(=O)[C@H](CCCNC(=N)N)NC1=O [VF50, cyclo FWRIRIRR-NH2] (cyclo(FWRIRIRR))	NEGATIVE	NEGATIVE	–	–
–	–	FWQRNIRKVRRRI-NH2 [Peptide P1-12]	NEGATIVE	NEGATIVE	–	–
–	–	CC[C@H](C)[C@H](NC(=O)[C@H](CC(N)=O)NC(=O)[C@H](CCCNC(=N)N)NC(=O)[C@H](CCC(N)=O)NC(=O)[C@H](Cc1c[nH]c2ccccc12)NC(=O)[C@H](Cc1ccccc1)NC(=O)C(C)(C)CC)C(=O)N[C@@H](CCCNC(=N)N)C(=O)N[C@@H](CCCCN)C(=O)N[C@@H](Cc1c[nH]c2ccccc12)C(=O)N[C@@H](CCCNC(=N)N)C(N)=O [VS1-42, 2,2-dimethylbutanoyl FWQRNIRKWR-NH2] ({Butanoyl(2,2-Me2)}-FWQRNIRKWR-NH2)	NEGATIVE	NEGATIVE	6	16
–	–	RWQRNIRIRR-NH2 [Peptide P2-19]	NEGATIVE	NEGATIVE	–	–
–	–	RFWQRNIRIRR-NH2 [Peptide P2-18]	NEGATIVE	NEGATIVE	–	–
–	–	CC[C@H](C)[C@H](NC(=O)[C@H](CCCNC(=N)N)NC(=O)[C@@H](NC(=O)[C@H](CCCNC(=N)N)NC(=O)[C@H](Cc1c[nH]c2ccccc12)NC(=O)[C@H](Cc1ccccc1)NC(=O)[C@@H]1CCCN1C(=O)C(C)(C)CC)[C@@H](C)CC)C(=O)N[C@@H](CCCNC(=N)N)C(=O)N[C@@H](CCCNC(=N)N)C(N)=O [VS1-52, 2,2-dimethylbutanoyl PFWRIRIRR-NH2] ({Butanoyl(2,2-Me2)}-PFWRIRIRR-NH2)	NEGATIVE	NEGATIVE	2	4
–	–	FWQRNYRKVR-NH2 [Peptide P1-39]	NEGATIVE	NEGATIVE	–	–
10	32	CCCCCCCC(=O)N[C@@H](Cc1ccccc1)C(=O)N[C@@H](Cc1c[nH]c2ccccc12)C(=O)N[C@@H](CCCNC(=N)N)C(=O)N[C@@H](CCCNC(=N)N)C(=O)N[C@@H](Cc1ccccc1)C(=O)N[C@@H](Cc1c[nH]c2ccccc12)C(=O)N[C@@H](CCCNC(=N)N)C(=O)N[C@@H](CCCNC(=N)N)C(N)=O [VS1-60, octanoyl FWRRFWRR-NH2] (Octanoyl-FWRRFWRR-NH2)	–	–	–	–
8	32	N=C(N)NCCC[C@H](NC(=O)[C@H](CCCNC(=N)N)NC(=O)[C@H](Cc1c[nH]c2ccccc12)NC(=O)[C@H](CCCNC(=N)N)NC(=O)[C@H](CCCCN)NC(=O)[C@H](CCCNC(=N)N)NC(=O)[C@H](Cc1c[nH]c2ccccc12)NC(=O)[C@H](Cc1ccccc1)NC(=O)[C@@H]1CCCN1)C(N)=O [VS1-31, PFWRKRWRR-NH2] (H-PFWRKRWRR-NH2; N-terminus assumed)	–	–	–	–
9	32	CC(C)C[C@H](NC(=O)[C@H](CCCNC(=N)N)NC(=O)[C@H](CCCCN)NC(=O)[C@H](CCCNC(=N)N)NC(=O)[C@H](Cc1c[nH]c2ccccc12)NC(=O)[C@H](Cc1ccccc1)NC(=O)[C@@H]1CCCN1)C(=O)N[C@@H](CCCNC(=N)N)C(=O)N[C@@H](CCCNC(=N)N)C(N)=O [VS1-29, PFWRKRLRR-NH2] (H-PFWRKRLRR-NH2; N-terminus assumed)	–	–	–	–
9	32	CC[C@H](C)[C@H](NC(=O)[C@H](CCCNC(=N)N)NC(=O)[C@H](CCCNC(=N)N)NC(=O)[C@H](CCCNC(=N)N)NC(=O)[C@H](Cc1c[nH]c2ccccc12)NC(=O)[C@H](Cc1ccccc1)NC(=O)[C@@H]1CCCN1)C(=O)N[C@@H](CCCNC(=N)N)C(=O)N[C@@H](CCCNC(=N)N)C(N)=O [VS1-32, PFWRRRIRR-NH2] (H-PFWRRRIRR-NH2; N-terminus assumed)	–	–	–	–
4	8	CCCCC(CC)C(=O)N[C@@H](Cc1ccccc1)C(=O)N[C@@H](Cc1c[nH]c2ccccc12)C(=O)N[C@@H](CCC(N)=O)C(=O)N[C@@H](CCCNC(=N)N)C(=O)N[C@@H](CC(N)=O)C(=O)N[C@H](C(=O)N[C@@H](CCCNC(=N)N)C(=O)N[C@@H](CCCCN)C(=O)N[C@@H](Cc1c[nH]c2ccccc12)C(=O)N[C@@H](CCCNC(=N)N)C(N)=O)[C@@H](C)CC (stereo partly shown) [VS1-41, 2-ethylhexanoyl FWQRNIRKWR-NH2] (X1-FWQRNIRKWR-NH2)	–	–	–	–
–	–	CC[C@H](C)[C@H](NC(=O)[C@H](CCCNC(=N)N)NC(=O)[C@H](CCCNC(=N)N)NC(=O)[C@H](CCC(N)=O)NC(=O)[C@H](Cc1c[nH]c2ccccc12)NC(=O)[C@@H](N)Cc1ccccc1)C(=O)N[C@@H](CCCNC(=N)N)C(=O)N[C@@H](CCCNC(=N)N)C(=O)N[C@@H](Cc1c[nH]c2ccccc12)C(=O)N[C@@H](CCCNC(=N)N)C(=O)N[C@@H](CCCNC(=N)N)C(N)=O [VS1-18, FWQRRIRRWRR-NH2] (H-FWQRRIRRWRR-NH2; N-terminus assumed)	NEGATIVE	NEGATIVE	7	32
11	62	CC[C@H](C)[C@H](NC(=O)[C@H](CCCCN)NC(=O)[C@H](CCCNC(=N)N)NC(=O)[C@H](CCCNC(=N)N)NC(=O)[C@H](Cc1c[nH]c2ccccc12)NC(=O)[C@@H]1CCCN1)C(=O)N[C@@H](CCCNC(=N)N)C(=O)N[C@@H](CCCNC(=N)N)C(N)=O [VS1-36, PWRRKIRR-NH2] (H-PWRRKIRR-NH2; N-terminus assumed)	–	–	–	–
4	8	CC[C@H](C)[C@H](NC(=O)[C@H](CCCNC(=N)N)NC(=O)[C@@H](NC(=O)[C@H](CCCNC(=N)N)NC(=O)[C@H](Cc1c[nH]c2ccccc12)NC(=O)[C@H](Cc1ccccc1)NC(=O)[C@@H]1CCCN1)[C@@H](C)CC)C(=O)N[C@@H](CCCNC(=N)N)C(=O)N[C@@H](CCCNC(=N)N)C(=O)N[C@@H](CC(=O)O)C(N)=O [VS1-23, PFWRIRIRRD-NH2] (H-PFWRIRIRRD-NH2; N-terminus assumed)	–	–	–	–
6	16	CCC(C)CCCCC(=O)N[C@@H](Cc1ccccc1)C(=O)N[C@@H](Cc1c[nH]c2ccccc12)C(=O)N[C@@H](CCCNC(=N)N)C(=O)N[C@H](C(=O)N[C@@H](CCCNC(=N)N)C(=O)N[C@H](C(=O)N[C@@H](CCCNC(=N)N)C(=O)N[C@@H](CCCNC(=N)N)C(N)=O)[C@@H](C)CC)[C@@H](C)CC (stereo partly shown) [VS1-58, 6-methyloctanoyl FWRIRIRR-NH2] ({Octanoyl(6-Me)}-FWRIRIRR-NH2)	–	–	–	–

— patent US7960339B2, “Antimicrobial peptides” (Österreichische Akademie der Wissenschaften, priority 2006, dated 2011)
